Measured values as given in US6573282B1 (priority 1995, dated 2003).
pKi: −log10 of the molar value. Values joined by “and” are separate entries in the source; they are usually repeats but may differ in a detail not shown here. Equal entries are not always repeated. “Also recorded” adds a separate entry of the source. Structures can show the parent of a compound that is named as a salt. Where two headings read alike, the source gives them in different places.

What was measured:
[1] = system: formalin-induced nociception; experiment: Formalin-induced flinching (early and late/tonic phase), intrapaw injection; assay type: in vivo, rat; details: for Formalin-Induced Flinching (Late Phase) % Maximal Efficacy / Formalin-Induced Flinching (Late Phase) ED50: intrapaw; for % Antagonism of Late Phase Flinching: 10 minutes prior to formalin, mean ± SEM; for A50, antinociception in the second phase of flinching: i.paw injection
human μ opiate receptors = molecular target: T1, human μ opiate receptors (Homo sapiens, UniProt P35372); experiment: biochemical; assay type: binding
T1 construct: expressed in transfected cells; host or cells: CHO cells
T1 sequence (P35372 whole entry): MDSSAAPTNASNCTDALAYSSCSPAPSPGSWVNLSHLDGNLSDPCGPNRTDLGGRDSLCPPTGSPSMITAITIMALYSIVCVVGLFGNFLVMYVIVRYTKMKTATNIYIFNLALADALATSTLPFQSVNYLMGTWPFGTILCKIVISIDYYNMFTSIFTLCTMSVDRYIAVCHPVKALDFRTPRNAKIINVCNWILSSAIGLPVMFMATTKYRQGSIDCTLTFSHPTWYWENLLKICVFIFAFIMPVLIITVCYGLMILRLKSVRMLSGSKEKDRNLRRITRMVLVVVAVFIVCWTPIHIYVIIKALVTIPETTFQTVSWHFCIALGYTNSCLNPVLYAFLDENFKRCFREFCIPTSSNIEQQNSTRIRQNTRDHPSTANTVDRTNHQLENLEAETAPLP

human δ receptor = human δ receptor (Homo sapiens, UniProt P41143); experiment: Opiate receptor binding, δ
Chain of human δ receptor (P41143 whole entry): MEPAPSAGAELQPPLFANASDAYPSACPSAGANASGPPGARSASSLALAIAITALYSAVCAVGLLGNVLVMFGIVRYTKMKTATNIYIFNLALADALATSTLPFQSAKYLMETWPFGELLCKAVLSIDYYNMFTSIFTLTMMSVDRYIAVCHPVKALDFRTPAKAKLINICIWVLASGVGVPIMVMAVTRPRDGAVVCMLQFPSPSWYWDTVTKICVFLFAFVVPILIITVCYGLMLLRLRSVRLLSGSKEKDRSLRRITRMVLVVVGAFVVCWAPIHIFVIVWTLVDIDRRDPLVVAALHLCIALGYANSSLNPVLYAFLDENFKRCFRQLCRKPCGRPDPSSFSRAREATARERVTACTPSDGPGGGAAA

human κ receptor = human κ receptor (Homo sapiens, UniProt P41145); experiment: biochemical; assay type: binding
Chain of human κ receptor (P41145 whole entry): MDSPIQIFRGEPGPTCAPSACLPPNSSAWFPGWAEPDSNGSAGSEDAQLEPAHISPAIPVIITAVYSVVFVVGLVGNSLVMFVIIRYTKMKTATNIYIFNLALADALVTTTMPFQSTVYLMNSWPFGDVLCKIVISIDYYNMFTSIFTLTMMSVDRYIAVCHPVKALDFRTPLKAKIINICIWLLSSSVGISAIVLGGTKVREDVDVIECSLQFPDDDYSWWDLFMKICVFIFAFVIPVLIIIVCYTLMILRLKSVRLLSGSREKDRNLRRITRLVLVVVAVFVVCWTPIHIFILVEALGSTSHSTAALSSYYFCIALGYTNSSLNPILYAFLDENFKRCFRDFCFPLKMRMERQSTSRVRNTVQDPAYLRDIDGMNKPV

[2] = system: yeast-injected left hind paw; experiment: Randall-Selitto assay, yeast-induced inflammation, paw pressure threshold; assay type: in vivo, rat; details: four hours after yeast, n=10
Source text: Air pressure from an air line is admitted through a needle valve to a syringe into a pressure gauge which is connected by a T-tube. The syringe is mounted with a plunger downward, to which is connected a short bullet-shaped wooden peg. The pressure is applied through the wooden tip to the plantar surface of the rat's foot at a specified rate of mm Hg per second. The end point is said to have been reached when the rat starts struggling.
Typically, rats, such as albino rats (120-170 g) of the Charles River Sprague-Dawley strain, or other laboratory strain are used. Hyperalgesia [inflammation] is produced by the injection of 0.1 ml of a 20% suspension of Brewer's yeast into the plantar surface of the rat's hind foot. Thresholds can be determined using a modified apparatus described in Winter and Flataker [(1965) J. Pharm. Exp. Ther. 148:373]. The pain threshold is measured as the pressure in mm Hg required to induce the desired response [a sharp audible squeak and/or struggle] when pressure is applied to the foot. Air pressure from an air line [or other source, such as a vice] is admitted through a needle valve to a 20 ml glass syringe and to a pressure gauge. Pressure is applied to the foot of the rat at a selected rate. The agent compound to be tested is administered typically 2 hours after the yeast injection and threshold response is determined. […] Analgesic activity was determined in terms of the percentage of inhibition of response:
Inhibition (%)=Threshold of the treated group−Threshold of the control group/Threshold of the control group×100
A Randall-Selitto assay [see, Randall et al. (1957) Arch. Int. Pharmacodyn.
Each rat was injected with 100 μl of a 20% yeast solution into the plantar surface of the left hind paw. […] Control rats were treated with 10% DMSO alone [n=20]. The pain thresholds of the inflamed and non-inflamed paws were measured by application of a pressure stimulus to the paw and the paw pressure threshold in gram [g] was recorded.

[3] = system: carrageenan or yeast inflammatory stimulus; experiment: Separate tests using carrageenan or yeast as the inflammatory stimulus; assay type: in vivo
[4] = system: acetic acid-induced writhing; details: mice, intraparenterally (Takasuna et al. 1994); cited from earlier work
acute pain models = details: given systemically; tail clip and hot plate tail withdrawal tests (Stahl et al., Shriver et al.); cited from earlier work
catalepsy = experiment: Catalepsy: time to dismount from a 4 cm high bar after IM injection; details: for Time to Dismount from Bar (sec) Before Drug: before drug (baseline); for Time to Dismount from Bar (sec) Before Drug / Time to Dismount from Bar (sec) After Drug Treatment (15 min): individual rats and x ± SE; for catalepsy: unanesthetized rats, IM morphine 3 mg, loperamide 0.5 mg

## 4-(4-chlorophenyl)-4-hydroxy-N,N-dimethyl-α,α-diphenyl-1-piperidinebutanamide methyl p-toluenesulfonate [Example 19]
[1]
  Formalin-Induced Flinching (Late Phase) % Maximal Efficacy: 69%
  Formalin-Induced Flinching (Late Phase) ED50: 93 μg i. paw

## CCN(C)C(=O)C(CCN1CCC(O)(c2ccc(Cl)cc2)CC1)(c1ccccc1)c1ccccc1 [Compound 17A]
Human μ opiate receptors
  pKi: 8.40
Human δ receptor
  pKi: 6.91
Human κ receptor
  pKi: 5.85
[1]
  Formalin-Induced Flinching (Late Phase) % Maximal Efficacy: 91%
  Formalin-Induced Flinching (Late Phase) ED50: 4.8 μg i. paw

## O=C(N1CCCC1)C(CCN1CCC(O)(c2ccc(Cl)cc2)CC1)(c1ccccc1)c1ccccc1 [Compound 17B]
Human μ opiate receptors
  pKi: 8.66
Human δ receptor
  pKi: 7.17
Human κ receptor
  pKi: 5.65
[1]
  Formalin-Induced Flinching (Late Phase) % Maximal Efficacy: 86%
  Formalin-Induced Flinching (Late Phase) ED50: 4.9 μg i. paw

## O=C(N1CCCCC1)C(CCN1CCC(O)(c2ccccc2)CC1)(c1ccccc1)c1ccccc1 [Compound 17C]
Human μ opiate receptors
  pKi: 8.60
Human δ receptor
  pKi: 7.82
Human κ receptor
  pKi: 5.33
[1]
  Formalin-Induced Flinching (Late Phase) % Maximal Efficacy: 87%
  Formalin-Induced Flinching (Late Phase) ED50: 19 μg i. paw

## CCOC(=O)C1(c2ccccc2)CCN(CCC(C#N)(c2ccccc2)c2ccccc2)CC1 [Deiphenoxylate]
Human δ receptor; read-out: In Vitro Binding Affinities Human Opiate Receptors Ki, δ
  pKi: 6.50
[1]
  Formalin-Induced Flinching (Late Phase) % Maximal Efficacy: 61%
  Formalin-Induced Flinching (Late Phase) ED50: 158 μg i. paw

## N#CC(CCN1CCC(C(=O)O)(c2ccccc2)CC1)(c1ccccc1)c1ccccc1 [Difenoxin]
Human μ opiate receptors
  pKi: 7.89
Human δ receptor
  pKi: 7.25
[1]
  Formalin-Induced Flinching (Late Phase) % Maximal Efficacy: 90%
  Formalin-Induced Flinching (Late Phase) ED50: 33 μg i. paw

## CNC(=O)C(CCN1CCC(O)(c2ccc(Cl)cc2)CC1)(c1ccccc1)c1ccccc1.Cl [Example 18, 4-(p-chlorophenyl)-4-hydroxy-N-methyl-α,α-diphenyl-1-piperidinebutyramide hydrochloride]
Human μ opiate receptors
  pKi: 8.96
Human δ receptor
  pKi: 6.70
Human κ receptor
  pKi: < 6.00
[1]
  Formalin-Induced Flinching (Late Phase) % Maximal Efficacy: 88%
  Formalin-Induced Flinching (Late Phase) ED50: 3.2 μg i. paw

## CN(C)C(=O)C(CCN1CCC(O)(c2ccc(Cl)cc2)CC1)(c1ccccc1)c1ccccc1 [Ioperamide]
[1]
  Formalin-Induced Flinching (Late Phase) % Maximal Efficacy: 97%
  Formalin-Induced Flinching (Late Phase) ED50: 6 μg i. paw

## CN(C)C(=O)C(CCN1CCC(O)(c2ccc(Cl)cc2)CC1)(c1ccccc1)c1ccccc1 [loperamide, 4-(p-chlorophenyl)-4-hydroxy-N-N-dimethyl-α,α-diphenyl-1-piperidinebutyramide hydrochloride]
[2]; dose 10 μg/100 μl/rat in 10% DMSO
  Paw Pressure Threshold: 66 ± 15 g
[2]; dose 50 μg/100 μl/rat in 10% DMSO
  Paw Pressure Threshold: 124 ± 29 g
[2]; dose 250 μg/100 μl/rat in 10% DMSO
  Paw Pressure Threshold: 153 ± 25 g
[1]; 100 μg i.paw
  time prior to formalin injection at which administration was still efficacious: up to 6 hours
[1]; 100 μg i.paw, contralateral
  antinociception when injected into the paw contralateral to formalin: failed to produce antinociception
[1]; 100 μg i.paw, ipsilateral
  antihyperalgesia when injected ipsilateral to formalin: exhibited antihyperalgesia activity
[1]; 300 μg i.paw, hydrochloride
  late phase flinching behavior at the highest dose: practically no flinching behavior; also recorded: Full efficacy
[1]; dose 1 μg into the paw
  % Antagonism of Late Phase Flinching: 20 ± 7%
[1]; dose 3 μg into the paw
  % Antagonism of Late Phase Flinching: 53 ± 10%
[1]; dose 10 μg into the paw
  % Antagonism of Late Phase Flinching: 55 ± 15%
[1]; dose 30 μg into the paw
  % Antagonism of Late Phase Flinching: 74 ± 10%
[1]; dose 100 μg into the paw
  % Antagonism of Late Phase Flinching: 75 ± 11%
[1]; dose 300 μg into the paw
  % Antagonism of Late Phase Flinching: 97 ± 2%
[1]; doses of 0.3, 3, 30 and 300 μg
  effects on early phase flinching: no significant effects
[1]
  A50, antinociception in the second phase of flinching: 6 µg
[3]
  antihyperalgesic activity: demonstrated antihyperalgesic activity
[4]
  acetic acid-induced writhing: suppression
Acute pain models
  analgesic effects in acute pain models: little or no analgesic effects
catalepsy; IM loperamide (0.5 mg) group, hydrochloride
  Time to Dismount from Bar (sec) Before Drug: 1 sec (4×) and 1 ± 0 sec
catalepsy; IM loperamide (0.5 mg), hydrochloride
  Time to Dismount from Bar (sec) After Drug Treatment (15 min): 1 sec (2×) and 3 sec and 2 sec and 2 ± 1 sec
catalepsy
  catalepsy: no sign of catalepsy

## CN1CC[C@]23c4c5ccc(O)c4O[C@H]2[C@@H](O)C=C[C@H]3[C@H]1C5.O=S(=O)(O)O [morphine, morphine sulfate]
[1]
  A50, antinociception in the second phase of flinching: 72 µg
catalepsy; IM morphine (3 mg) group, sulfate
  Time to Dismount from Bar (sec) Before Drug: 1 sec (3×) and 1 ± 1 sec and 2 sec
catalepsy; IM morphine (3 mg), sulfate
  Time to Dismount from Bar (sec) After Drug Treatment (15 min): 37 s and 31 s and 37 ± 11 s and 29 s and 52 s
catalepsy
  catalepsy: significantly more cataleptic
